Reference: patent US20090304755A1, “PHARMACEUTICAL FORMULATION OF LOSARTAN” (priority 2005, published 2009)

Tests used:
[1] = Particle size by Malvern light scattering technique; assay type: physicochemical; settings: particle size of losartan active agent
Description: “d (0.9)” denotes a particle size wherein 90% (volume) particles have diameter less than the specified diameter d.

[2] = Specific surface area by gas adsorption analyzer method (BET); assay type: physicochemical; settings: losartan active agent
Description: The results of our investigations have shown that it is advantageous to use losartan, with a particle size d (0.9) less than 50μ measured by Malvern light scattering technique, and/or a specific particle specific surface area more than 0.6 m^2/g measured by the Gas adsorption analyzer method (BET).

[3] = oral administration; cited from earlier work

Row | d (0.1) [1] | d (0.5) [1] | d (0.9) [1] | Specific Surface Area [2] | SMILES | systemic bioavailability [3]
1 | d (0.1) = 0.869μ | d (0.5) = 10.077μ | d (0.9) = 21.382μ | Specific Surface Area = 0.7-0.8 m^2/g | CCCCc1nc(Cl)c(CO)n1Cc1ccc(-c2ccccc2-c2nn[nH]n2)cc1 [A, Losartan Potassium] | 
2 | d (0.1) = 1.806μ | d (0.5) = 24.812μ | d (0.9) = 53.931μ | Specific Surface Area = 0.4-0.5 m^2/g | CCCCc1nc(Cl)c(CO)n1Cc1ccc(-c2ccccc2-c2nn[nH]n2)cc1 [B, Losartan Potassium] | 
3 |  |  |  |  | CCCCc1nc(Cl)c(CO)n1Cc1ccc(-c2ccccc2-c2nn[nH]n2)cc1 [losartan, Losartan] | approximately 33%
